According to ChEMBL document CHEMBL5291721, “A preclinical secondary pharmacology resource illuminates target-adverse drug reaction associations of marketed drugs” (Nat Commun, 2023):

Columns and labels:
[1] = biological target: Neuronal acetylcholine receptor subunit alpha-4 (Homo sapiens, UniProt P43681)
Endothelin-1 receptor = biological target: T1, Endothelin-1 receptor (Homo sapiens, UniProt P25101)
T1 sequence (P25101 whole entry): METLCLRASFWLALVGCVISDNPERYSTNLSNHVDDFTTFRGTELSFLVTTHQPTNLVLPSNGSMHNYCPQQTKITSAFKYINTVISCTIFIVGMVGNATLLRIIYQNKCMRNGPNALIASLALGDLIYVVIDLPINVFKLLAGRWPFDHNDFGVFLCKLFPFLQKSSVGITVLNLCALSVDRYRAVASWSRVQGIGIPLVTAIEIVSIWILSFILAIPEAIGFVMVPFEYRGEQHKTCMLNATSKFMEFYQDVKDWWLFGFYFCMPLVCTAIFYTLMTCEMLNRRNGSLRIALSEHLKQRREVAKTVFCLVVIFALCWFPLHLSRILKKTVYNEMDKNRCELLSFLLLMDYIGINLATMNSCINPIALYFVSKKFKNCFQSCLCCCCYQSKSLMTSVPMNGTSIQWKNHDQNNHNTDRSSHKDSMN

[2] = biological target: Delta-type opioid receptor (Homo sapiens, UniProt P41143)
Sequence of Delta-type opioid receptor (P41143 whole entry): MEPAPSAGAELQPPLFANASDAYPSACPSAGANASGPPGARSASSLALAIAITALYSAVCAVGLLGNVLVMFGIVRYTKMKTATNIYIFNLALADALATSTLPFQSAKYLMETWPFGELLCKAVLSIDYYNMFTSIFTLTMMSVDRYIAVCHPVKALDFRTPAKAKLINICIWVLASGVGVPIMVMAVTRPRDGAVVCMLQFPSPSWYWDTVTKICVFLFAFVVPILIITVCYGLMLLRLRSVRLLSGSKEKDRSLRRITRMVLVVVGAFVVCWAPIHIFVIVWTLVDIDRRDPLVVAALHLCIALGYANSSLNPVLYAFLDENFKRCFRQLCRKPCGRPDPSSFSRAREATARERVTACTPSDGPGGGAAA

Mu-type opioid receptor = Mu-type opioid receptor (Homo sapiens, UniProt P35372)
Sequence of Mu-type opioid receptor (P35372 whole entry): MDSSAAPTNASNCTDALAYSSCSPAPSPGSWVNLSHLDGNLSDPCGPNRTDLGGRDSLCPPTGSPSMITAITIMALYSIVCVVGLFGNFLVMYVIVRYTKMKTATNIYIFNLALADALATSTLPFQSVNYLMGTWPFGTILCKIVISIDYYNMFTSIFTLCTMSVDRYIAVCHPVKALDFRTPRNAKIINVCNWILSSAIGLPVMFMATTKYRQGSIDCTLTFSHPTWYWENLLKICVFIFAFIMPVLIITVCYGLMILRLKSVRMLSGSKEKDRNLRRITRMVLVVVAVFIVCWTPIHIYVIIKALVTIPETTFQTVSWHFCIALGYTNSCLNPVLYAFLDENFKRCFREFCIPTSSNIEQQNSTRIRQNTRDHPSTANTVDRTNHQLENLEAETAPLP

[3] = biological target: T2, Amine oxidase [flavin-containing] A (Homo sapiens, UniProt P21397); type: functional
T2 sequence (P21397 whole entry): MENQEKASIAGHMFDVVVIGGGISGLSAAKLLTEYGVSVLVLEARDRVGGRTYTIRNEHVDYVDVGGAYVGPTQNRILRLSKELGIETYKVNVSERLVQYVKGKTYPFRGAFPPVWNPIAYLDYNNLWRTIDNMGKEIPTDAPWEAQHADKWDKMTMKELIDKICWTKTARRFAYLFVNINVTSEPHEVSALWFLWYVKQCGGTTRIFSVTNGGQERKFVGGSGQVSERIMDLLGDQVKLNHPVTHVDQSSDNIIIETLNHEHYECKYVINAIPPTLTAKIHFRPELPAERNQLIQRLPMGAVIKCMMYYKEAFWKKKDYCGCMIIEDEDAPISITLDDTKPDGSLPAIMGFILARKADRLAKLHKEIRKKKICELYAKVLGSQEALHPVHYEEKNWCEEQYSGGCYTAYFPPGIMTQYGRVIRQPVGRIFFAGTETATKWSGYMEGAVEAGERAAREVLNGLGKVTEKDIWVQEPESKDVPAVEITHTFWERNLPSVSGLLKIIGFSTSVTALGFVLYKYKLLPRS

[4] = biological target: T3, Alpha-1A adrenergic receptor (Homo sapiens, UniProt P35348); type: functional, cell-based
T3 sequence (P35348 whole entry): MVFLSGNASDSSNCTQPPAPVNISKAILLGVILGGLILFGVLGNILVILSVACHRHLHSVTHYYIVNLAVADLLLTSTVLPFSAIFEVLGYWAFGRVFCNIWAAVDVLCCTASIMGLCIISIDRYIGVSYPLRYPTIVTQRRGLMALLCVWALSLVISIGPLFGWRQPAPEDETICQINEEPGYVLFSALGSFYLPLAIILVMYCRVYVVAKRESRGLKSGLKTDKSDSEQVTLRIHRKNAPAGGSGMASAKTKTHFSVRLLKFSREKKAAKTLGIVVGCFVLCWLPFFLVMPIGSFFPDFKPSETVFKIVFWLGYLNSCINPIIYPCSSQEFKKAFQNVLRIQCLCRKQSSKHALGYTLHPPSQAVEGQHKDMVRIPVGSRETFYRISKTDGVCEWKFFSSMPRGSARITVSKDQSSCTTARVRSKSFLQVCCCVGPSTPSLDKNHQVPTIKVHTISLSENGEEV

[5] = biological target: T3, Alpha-1A adrenergic receptor; type: functional, cell-based; remark: listed apart in the source
[6] = biological target: Beta-2 adrenergic receptor (Homo sapiens, UniProt P07550)
Sequence of Beta-2 adrenergic receptor (P07550 whole entry): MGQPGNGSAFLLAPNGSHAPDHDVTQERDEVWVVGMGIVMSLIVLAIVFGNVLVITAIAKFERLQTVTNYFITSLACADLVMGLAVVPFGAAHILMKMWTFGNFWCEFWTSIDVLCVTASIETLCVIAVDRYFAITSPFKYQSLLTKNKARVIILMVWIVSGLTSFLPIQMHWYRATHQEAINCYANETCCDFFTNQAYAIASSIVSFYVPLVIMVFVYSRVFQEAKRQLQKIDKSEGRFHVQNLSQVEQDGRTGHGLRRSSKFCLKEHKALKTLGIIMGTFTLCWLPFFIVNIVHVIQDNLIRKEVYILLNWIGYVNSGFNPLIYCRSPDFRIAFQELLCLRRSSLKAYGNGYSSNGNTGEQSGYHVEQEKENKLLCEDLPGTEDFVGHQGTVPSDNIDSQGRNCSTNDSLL

B2 bradykinin receptor = biological target: T4, B2 bradykinin receptor (Homo sapiens, UniProt P30411)
T4 sequence (P30411 whole entry): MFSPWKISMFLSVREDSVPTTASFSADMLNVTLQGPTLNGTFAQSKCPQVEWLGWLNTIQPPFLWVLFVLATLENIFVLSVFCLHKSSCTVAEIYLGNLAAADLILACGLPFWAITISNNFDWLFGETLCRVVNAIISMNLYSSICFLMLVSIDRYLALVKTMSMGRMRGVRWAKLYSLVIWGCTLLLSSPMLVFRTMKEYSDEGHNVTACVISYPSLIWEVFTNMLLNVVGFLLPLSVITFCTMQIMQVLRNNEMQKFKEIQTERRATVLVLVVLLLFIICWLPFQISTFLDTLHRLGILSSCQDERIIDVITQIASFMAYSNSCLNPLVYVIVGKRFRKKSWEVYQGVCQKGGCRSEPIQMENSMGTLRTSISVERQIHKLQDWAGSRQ

Cannabinoid receptor 1 = Cannabinoid receptor 1 (Homo sapiens, UniProt P21554)
Sequence of Cannabinoid receptor 1 (P21554 whole entry): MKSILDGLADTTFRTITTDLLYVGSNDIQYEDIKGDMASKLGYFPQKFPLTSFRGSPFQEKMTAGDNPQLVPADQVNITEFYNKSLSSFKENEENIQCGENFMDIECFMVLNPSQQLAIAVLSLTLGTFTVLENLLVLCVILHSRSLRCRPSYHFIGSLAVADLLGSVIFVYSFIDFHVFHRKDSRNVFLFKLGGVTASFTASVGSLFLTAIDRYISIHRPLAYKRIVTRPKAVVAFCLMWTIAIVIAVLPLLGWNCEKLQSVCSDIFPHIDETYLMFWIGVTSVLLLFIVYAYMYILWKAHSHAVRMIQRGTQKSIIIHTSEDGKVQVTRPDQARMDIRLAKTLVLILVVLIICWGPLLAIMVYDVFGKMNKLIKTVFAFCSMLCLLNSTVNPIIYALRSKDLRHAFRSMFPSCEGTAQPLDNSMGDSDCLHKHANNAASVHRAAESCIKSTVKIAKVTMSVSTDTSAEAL

[7] = biological target: Gamma-aminobutyric acid receptor subunit alpha-1 (Rattus norvegicus, UniProt P62813)
Sequence of Gamma-aminobutyric acid receptor subunit alpha-1 (P62813 whole entry): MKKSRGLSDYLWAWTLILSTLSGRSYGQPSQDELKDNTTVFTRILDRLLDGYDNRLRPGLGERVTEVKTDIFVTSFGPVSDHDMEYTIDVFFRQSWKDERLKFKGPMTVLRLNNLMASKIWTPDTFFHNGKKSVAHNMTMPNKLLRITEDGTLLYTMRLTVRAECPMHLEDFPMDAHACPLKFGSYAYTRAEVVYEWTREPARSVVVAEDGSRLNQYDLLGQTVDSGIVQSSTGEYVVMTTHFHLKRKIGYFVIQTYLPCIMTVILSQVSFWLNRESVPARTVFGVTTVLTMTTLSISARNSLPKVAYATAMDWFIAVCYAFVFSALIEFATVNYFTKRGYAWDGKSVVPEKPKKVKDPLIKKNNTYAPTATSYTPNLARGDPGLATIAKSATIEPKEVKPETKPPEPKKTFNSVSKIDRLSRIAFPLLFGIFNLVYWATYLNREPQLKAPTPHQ
Note: assay procedure not described here.

Sequence of Neuronal acetylcholine receptor subunit alpha-4 (P43681 whole entry): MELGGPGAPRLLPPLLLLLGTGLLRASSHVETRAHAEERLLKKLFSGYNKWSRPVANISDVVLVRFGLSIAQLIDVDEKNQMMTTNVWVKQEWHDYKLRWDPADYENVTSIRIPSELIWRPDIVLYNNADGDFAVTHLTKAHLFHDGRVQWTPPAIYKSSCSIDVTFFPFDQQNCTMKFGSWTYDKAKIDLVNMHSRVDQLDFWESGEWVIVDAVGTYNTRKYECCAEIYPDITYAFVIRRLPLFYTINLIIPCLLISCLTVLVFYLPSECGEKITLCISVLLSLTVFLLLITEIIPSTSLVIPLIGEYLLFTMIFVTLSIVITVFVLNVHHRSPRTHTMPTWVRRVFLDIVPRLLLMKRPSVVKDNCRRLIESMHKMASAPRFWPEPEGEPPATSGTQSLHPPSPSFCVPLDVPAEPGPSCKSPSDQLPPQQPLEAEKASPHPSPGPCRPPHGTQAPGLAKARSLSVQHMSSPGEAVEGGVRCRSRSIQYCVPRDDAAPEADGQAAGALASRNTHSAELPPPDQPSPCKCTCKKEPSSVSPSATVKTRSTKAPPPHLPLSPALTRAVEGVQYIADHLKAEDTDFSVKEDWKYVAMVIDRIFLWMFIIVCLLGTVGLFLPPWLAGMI

| AC50 [1] [µM] | AC50 (Endothelin-1 receptor) [µM] | AC50 [2] [µM] | AC50 (Mu-type opioid receptor) [µM] | AC50 [3] [µM] | AC50 [4] [µM] | AC50 [6] [µM] | AC50 (B2 bradykinin receptor) [µM] | AC50 (Cannabinoid receptor 1) [µM] | AC50 [7] [µM] | Structure (SMILES) | AC50 [5] [µM] |
| --- | --- | --- | --- | --- | --- | --- | --- | --- | --- | --- | --- |
| > 30 | > 30 | > 30 | > 30 | > 30 | > 30 | – | – | – | – | CC(S)C(=O)NCC(=O)O (centres undefined) [TIOPRONIN] | – |
| – | – | – | – | – | – | – | – | – | – | C[C@]1(Cn2ccnn2)[C@H](C(=O)O)N2C(=O)C[C@H]2S1(=O)=O [TAZOBACTAM] | > 30 |
| > 30 | > 10 | > 30 | > 30 | > 10 | – | > 10 | > 30 | > 10 | > 10 | CC(C(=O)O)c1ccc2c(c1)[nH]c1ccc(Cl)cc12 (centres undefined) [CARPROFEN] | – |
| 3.63 | – | > 30 | – | > 30 | 12 | > 30 | > 30 | > 30 | > 30 | COc1ccc(CC2c3cc(OC)c(OC)cc3CC[N+]2(C)CCC(=O)OCCCCCOC(=O)CC[N+]2(C)CCc3cc(OC)c(OC)cc3C2Cc2ccc(OC)c(OC)c2)cc1OC (centres undefined) | – |
| > 30 | > 30 | > 10 | 1.7 | > 10 | 0.3 | – | > 30 | > 10 | > 10 | COc1ccccc1OCCNCC(O)COc1cccc2[nH]c3ccccc3c12 (centres undefined) [CARVEDILOL] | – |
| > 30 | > 30 | – | – | – | – | – | > 30 | – | – | CC(C)(C)NCC(O)c1cc(O)cc(O)c1 (centres undefined) [TERBUTALINE] | – |
| – | > 30 | > 30 | > 30 | 30 | – | > 10 | – | > 10 | – | C[C@@H](Oc1cc(-c2cnn(C3CCNCC3)c2)cnc1N)c1c(Cl)ccc(F)c1Cl [CRIZOTINIB] | – |
| > 10 | – | > 30 | > 30 | > 10 | – | > 10 | > 10 | > 10 | > 10 | O=C1CN(/N=C/c2ccc(-c3ccc([N+](=O)[O-])cc3)o2)C(O)=N1 [DANTROLENE] | – |
| – | – | > 30 | 6.2 | > 10 | – | > 10 | > 30 | > 10 | – | C=C[C@H]1C[N@@]2CC[C@H]1C[C@@H]2[C@@H](O)c1ccnc2ccc(OC)cc12 [QUINIDINE] | – |
| 7.3 | 8.3 | 1.7 | 4.9 | > 30 | – | 8 | 2.5 | – | > 30 | CCN(CC)CCNC(=O)c1c(C)[nH]c(/C=C2\C(=O)Nc3ccc(F)cc32)c1C [SUNITINIB] | – |
| – | – | – | – | – | – | – | – | – | – | CC1=C(/C=C/C(C)=C/C=C/C(C)=C/C(=O)O)C(C)(C)CCC1 [TRETINOIN] | 20.3 |
| > 1 | > 30 | > 30 | 2.5 | > 30 | > 30 | – | > 3 | – | > 30 | C[C@@H](NCCCc1cccc(C(F)(F)F)c1)c1cccc2ccccc12 | – |

| Structure (SMILES) | AC50 [1] [µM] | AC50 (Endothelin-1 receptor) [µM] | AC50 [2] [µM] | AC50 (Mu-type opioid receptor) [µM] | AC50 [3] [µM] | AC50 [4] [µM] | AC50 [6] [µM] | AC50 (B2 bradykinin receptor) [µM] | AC50 (Cannabinoid receptor 1) [µM] | AC50 [7] [µM] | AC50 [5] [µM] |
| --- | --- | --- | --- | --- | --- | --- | --- | --- | --- | --- | --- |
| CCN1CCN(Cc2ccc(Nc3ncc(F)c(-c4cc(F)c5nc(C)n(C(C)C)c5c4)n3)nc2)CC1 [ABEMACICLIB] | > 30 | > 30 | > 30 | > 30 | > 30 | > 30 | – | – | – | – | – |
